The text below walks through data of patent US5750104A, “High buffer-containing enteric coating digestive enzyme bile acid compositions and method of treating digestive disorders therewith” (Digestive Care Inc., priority 1996, dated 1998).

For data set [1] the following is noted: cited from earlier work.
The next data set deals with pancreatic enzymes. The data set is described as follows: Compatibility and biological activity of pancreatic enzymes in acidic UDCA compositions. Type of data set: biochemical. Particulars: acidic form of UDCA. The text has this:
Pancreatic enzymes and salts of UDCA complement one another in the digestive system of a mammal. A dietary supplement containing both the enzymes and salts of UDCA would provide in a convenient pre-determined dose the remedy needed to treat the above-described diseased states. […] Lipase is especially affected by the low pH for the reasons that: […]

As for `C[C@H](CCC(=O)O)[C@H]1CC[C@H]2[C@@H]3[C@@H](O)C[C@@H]4C[C@H](O)CC[C@]4(C)[C@H]3CC[C@]12C` [UDCA, ursodeoxycholic acid], in data set [1] (about 30 mg/kg of body weight, some patients), the “benefit at higher dosage” value is listed as “limited benefits”. Also, in data set [1] (human, in vivo), the “effect on liver function” value is “augmenting liver function” and the undesirable side effects entry is given as “severe diarrhea”. The “effect on nutritional state” value in data set [1] (patients having cystic fibrosis, hepatobiliary complications) was “improving the nutritional state”. Moreover, the “compatibility with pancreatic enzymes” value in the data set on pancreatic enzymes is recorded as “incompatible with pancreatic enzymes”.
